Holding throughout (type): nucleic-acid assay
For experiment [1], the system named is Nucleic Acid. Kind of experiment: Binding affinity to 5'-TGA-TATA-TTT-TATA-TCA at 200 uM by HPLC/MS analysis.
For experiment [2], the system named is Nucleic Acid. Description: Binding affinity to 5'-AGA-TATA-TTT-TATA-TCT at 200 uM by HPLC/MS analysis.
Experiment [3] has as its system Nucleic Acid. Kind of experiment: Binding affinity to 5'-TATA-TGT-TTT-ACA-TATA at 200 uM by HPLC/MS analysis.
Experiment [4] concerns Nucleic Acid. Kind of experiment: Binding affinity to 5'-TATA-AGA-TTT-TCT-TATA at 200 uM by HPLC/MS analysis.
The test system of experiment [5] is Nucleic Acid. Kind of experiment: Binding affinity to 5'-TATA-AGT-TTT-ACT-TATA at 200 uM by HPLC/MS analysis.
The test system of experiment [6] is Nucleic Acid. Kind of experiment: Binding affinity to 5'-AGT-TATA-TTT-TATA-ACT at 200 uM by HPLC/MS analysis.
Experiment [7] concerns Nucleic Acid. Kind of experiment: Binding affinity to 5'-TATA-TGA-TTT-TCA-TATA at 200 uM by HPLC/MS analysis.
Experiment [8] relates to Nucleic Acid. Description: Binding affinity to 5'-TGT-TATA-TTT-TATA-ACA at 200 uM by HPLC/MS analysis.

In the case of `COC(=O)c1cc(NC(=O)c2cc(NC(=O)CCCOc3cc4c(cc3OC)C(=O)N3CCC[C@H]3C=N4)cn2C)cn1C`, the K in the experiment on Nucleic Acid [1] is 0.196 µM/min; in the experiment on Nucleic Acid [2], 0.132 µM/min; in the experiment with Nucleic Acid [3], over 0.506 µM/min; in the experiment on Nucleic Acid [4], 0.091 µM/min; in the experiment on Nucleic Acid [5], 0.124 µM/min; in the experiment with Nucleic Acid [6] it was 0.096 µM/min. Further, the K in the experiment on Nucleic Acid [7] was over 0.364 µM/min; in the experiment on Nucleic Acid [8], over 0.808 µM/min.

The values are drawn from ChEMBL document CHEMBL2146450, “DNA Sequence Preference and Adduct Orientation of Pyrrolo[2,1-c][1,4]benzodiazepine Antitumor Agents” (ACS Med Chem Lett, 2010).
